We go through eight molecules from PubChem BioAssay (NCI).

The structures appear in SMILES notation.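 A five-concentration, 48-hour dose response in 96-well plates underlies each endpoint, interpolated linearly between surrounding concentrations. TGI: total growth inhibition.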

Some test systems named below: 786-0 renal; ACHN renal; BT-549 breast; HCT-116 colon; HOP-62 NSCLC; KM12 colon; M14 melanoma; MDA-N; NCI-H23 lung; OVCAR-5 ovarian; RXF 393 renal; SF-295 CNS; SK-MEL-5 melanoma; SNB-75 CNS; UO-31 renal; MALME-3M melanoma; SK-OV-3 ovarian; SN12C renal; SNB-19 CNS; UACC-62 melanoma.
What all share (assay): NCI tumour cell line growth inhibition, 48 h

Consider `N#CC(C#N)=C1C(=Cc2ccc(OCCCCCCCCCCSSCCCCCCCCCCOc3ccc(C=C4C(=C(C#N)C#N)c5ccccc5C4=C(C#N)C#N)cc3)cc2)C(=C(C#N)C#N)c2ccccc21`, for which the TGI in the assay with 786-0 renal was 41.7 µM; in the assay on ACHN renal it was more than 100 µM; in the assay with BT-549 breast, 38.9 µM; with HCT-116 colon it was 30.8 µM; in the assay with HOP-62 NSCLC it was 47.6 µM; with KM12 colon it was 78.1 µM. The TGI in the assay on M14 melanoma was found to be 47.9 µM; with MDA-N it was 88.3 µM; in the assay with NCI-H23 lung, 32.6 µM; in the assay with OVCAR-5 ovarian, 35.5 µM; in the assay with RXF 393 renal, 67.2 µM; in the assay on SF-295 CNS, 45.7 µM. In addition, the TGI in the assay with SK-MEL-5 melanoma was 52.3 µM; in the assay on SNB-75 CNS, more than 100 µM; in the assay with UO-31 renal, 40.2 µM.

Take `CC1=NN(c2nc(N)nc(/C(C#N)=C/c3ccccc3O)n2)C(C)(C)C1`: the TGI with 786-0 renal was determined as 29.1 µM; in the assay on ACHN renal, 34.5 µM; in the assay on BT-549 breast, 67.7 µM; in the assay with HCT-116 colon, 32.2 µM; with HOP-62 NSCLC, 38.8 µM; in the assay with KM12 colon, 31.4 µM. The TGI amounted to 36.4 µM in the assay with M14 melanoma; 33.8 µM in the assay with MALME-3M melanoma; 30.7 µM with MDA-N; 34.5 µM in the assay with NCI-H23 lung; 30.4 µM in the assay with OVCAR-5 ovarian; 39.5 µM in the assay on RXF 393 renal. Further, the TGI with SF-295 CNS worked out at 30.7 µM; in the assay on SK-MEL-5 melanoma it was 28.8 µM; in the assay on SK-OV-3 ovarian, 53.2 µM; with SN12C renal, 71.9 µM; in the assay on SNB-19 CNS, 91.7 µM; in the assay with UACC-62 melanoma, 33.5 µM. In the assay on UO-31 renal, the TGI was found to be 36.5 µM.

`NC1CC(=O)c2cscc21` (stereo unspecified): the TGI is 28.4 µM in the assay with 786-0 renal; more than 100 µM in the assay on BT-549 breast; more than 100 µM in the assay with HCT-116 colon; more than 100 µM in the assay on HOP-62 NSCLC; 43.1 µM in the assay on KM12 colon; more than 100 µM in the assay with M14 melanoma. Further, the TGI with MDA-N, in the assay on NCI-H23 lung, in the assay with OVCAR-5 ovarian, in the assay on RXF 393 renal, in the assay on SF-295 CNS and in the assay with SK-MEL-5 melanoma was more than 100 µM throughout. The TGI was more than 100 µM in the assay with SK-OV-3 ovarian; more than 100 µM with SN12C renal; more than 100 µM in the assay on SNB-19 CNS; more than 100 µM with SNB-75 CNS; 22.1 µM in the assay with UO-31 renal.

`CC1=C(C(=O)OCCO[N+](=O)[O-])C(c2cccc([N+](=O)[O-])c2)C(C(=O)OC(C)C)=C(C)N1` (stereo unspecified): the TGI in the assay with 786-0 renal is 35.7 µM; in the assay with ACHN renal, more than 100 µM; in the assay with BT-549 breast, 27.1 µM; in the assay with HCT-116 colon it was 22.2 µM; in the assay with HOP-62 NSCLC, 30.9 µM; with KM12 colon, 23.1 µM. In addition, the TGI came out at 29.5 µM in the assay on M14 melanoma; 51.9 µM in the assay on MALME-3M melanoma; 28.1 µM in the assay on MDA-N; 45.7 µM in the assay with NCI-H23 lung; 30.4 µM with OVCAR-5 ovarian; 31.5 µM with RXF 393 renal. The TGI in the assay on SF-295 CNS is 56.6 µM; with SK-MEL-5 melanoma, 26.1 µM; in the assay on SK-OV-3 ovarian it was 36.9 µM; with SN12C renal, 36.4 µM; in the assay on SNB-19 CNS, 75.4 µM; in the assay with UACC-62 melanoma, 30.2 µM. This molecule also returned a TGI in the assay on UO-31 renal of 28.1 µM.

As to `Cc1ccc(-c2n[nH]c(Cc3nc(-c4ccc(C)cc4)n[nH]3)n2)cc1`, the TGI with 786-0 renal, in the assay on ACHN renal, in the assay on BT-549 breast, in the assay on HCT-116 colon, in the assay on HOP-62 NSCLC and with KM12 colon was more than 100 µM each time. Moreover, the TGI with M14 melanoma, in the assay with MDA-N, in the assay on NCI-H23 lung, in the assay on OVCAR-5 ovarian, with RXF 393 renal and with SF-295 CNS was more than 100 µM throughout. The TGI in the assay on SK-MEL-5 melanoma, with SK-OV-3 ovarian, in the assay on SN12C renal, in the assay with SNB-19 CNS, in the assay with SNB-75 CNS and in the assay on UACC-62 melanoma was more than 100 µM throughout. The TGI in the assay on UO-31 renal was more than 100 µM.

Turning to `CCCN(CCC)CCc1ccc(OC2=CCN(C)CC2)cc1`, the TGI in the assay on 786-0 renal, in the assay on ACHN renal, in the assay on BT-549 breast, in the assay with HCT-116 colon, with HOP-62 NSCLC and with KM12 colon was more than 100 µM in each case. Besides, the TGI in the assay with M14 melanoma is 29.1 µM; in the assay on MALME-3M melanoma, 32.4 µM; with MDA-N, more than 100 µM; with NCI-H23 lung, more than 100 µM; in the assay with OVCAR-5 ovarian it was more than 100 µM; with RXF 393 renal, more than 100 µM. The TGI in the assay on SF-295 CNS, in the assay on SK-MEL-5 melanoma, with SK-OV-3 ovarian, in the assay with SN12C renal, in the assay on SNB-19 CNS and with UACC-62 melanoma was more than 100 µM each time. Moreover, the TGI in the assay on UO-31 renal turned out to be 88.3 µM.

Take `CCN(CC)c1ccc2cc(C(N)=O)c(=N)oc2c1`: the TGI in the assay on 786-0 renal, in the assay with ACHN renal, in the assay on BT-549 breast, with HCT-116 colon, in the assay on HOP-62 NSCLC and in the assay on KM12 colon was more than 100 µM in each case. Besides, the TGI in the assay on M14 melanoma, with MDA-N, with NCI-H23 lung, with OVCAR-5 ovarian, with RXF 393 renal and in the assay on SK-MEL-5 melanoma was more than 100 µM in each case. Further, the TGI with SK-OV-3 ovarian, with SN12C renal, in the assay on SNB-19 CNS, in the assay on SNB-75 CNS and with UACC-62 melanoma was more than 100 µM each time.

`CN1Cc2ccccc2S(=O)(=O)n2cccc2C1=O`: the TGI in the assay with 786-0 renal, in the assay with ACHN renal, in the assay with BT-549 breast, in the assay on HCT-116 colon, with HOP-62 NSCLC and in the assay on KM12 colon was more than 100 µM throughout. Further, the TGI in the assay with MDA-N, in the assay with OVCAR-5 ovarian, with RXF 393 renal, with SF-295 CNS, in the assay on SK-MEL-5 melanoma and in the assay with SK-OV-3 ovarian was more than 100 µM in each case. In addition, the TGI in the assay with SN12C renal, in the assay with SNB-75 CNS, in the assay on UACC-62 melanoma and in the assay with UO-31 renal was more than 100 µM throughout.
